In the oligonucleotide strings, read from the 5' end, every base follows the letter of its sugar. An asterisk marks phosphorothioate; unmarked linkages are phosphodiester. Other units and linkages are bracketed, terminal groups are in braces. A string of capitals states the bases alone. d = 2'-deoxy (DNA)
How the values were obtained:
RAW264.7 cells [1] = experiment: HSP90 and GR immunostaining and colocalization, confocal microscopy; assay type: cell-based, mouse; details: 24 h, 1-10 μM
Experimental: Immunohistochemistry: Cells were fixed with 4% PFA in phosphate-buffered saline (PBS) for 15 minutes at room temperature (RT), washed and transferred to 100% MetOH at −20° C. for 5 minutes. Afterwards, cells were washed twice with a blocking medium containing PBS, 1% bovine serum albumin (BSA) and 0.01% NaN3 and then were incubated for 1 hour at RT with anti-HSP90 and anti-GR antibodies (1:50) (Santa Cruz Biotechnology, CA). After incubation, cells were washed twice in blocking medium and incubated with 1:100 secondary antibodies (Jackson Immunoresearch Laboratories, PA). Slides were mounted onto glass slides and visualized by confocal microscopy.

[2] = biological target: T1, glucocorticoid receptor (GR) (Mus musculus, UniProt P06537); experiment: Glucocorticoid receptor whole cell [3H]dexamethasone binding assay, RAW264.7; assay type: cell-based; set-up: host or cells: RAW264.7 (mouse macrophage cell line)
T1 sequence (P06537 1-792): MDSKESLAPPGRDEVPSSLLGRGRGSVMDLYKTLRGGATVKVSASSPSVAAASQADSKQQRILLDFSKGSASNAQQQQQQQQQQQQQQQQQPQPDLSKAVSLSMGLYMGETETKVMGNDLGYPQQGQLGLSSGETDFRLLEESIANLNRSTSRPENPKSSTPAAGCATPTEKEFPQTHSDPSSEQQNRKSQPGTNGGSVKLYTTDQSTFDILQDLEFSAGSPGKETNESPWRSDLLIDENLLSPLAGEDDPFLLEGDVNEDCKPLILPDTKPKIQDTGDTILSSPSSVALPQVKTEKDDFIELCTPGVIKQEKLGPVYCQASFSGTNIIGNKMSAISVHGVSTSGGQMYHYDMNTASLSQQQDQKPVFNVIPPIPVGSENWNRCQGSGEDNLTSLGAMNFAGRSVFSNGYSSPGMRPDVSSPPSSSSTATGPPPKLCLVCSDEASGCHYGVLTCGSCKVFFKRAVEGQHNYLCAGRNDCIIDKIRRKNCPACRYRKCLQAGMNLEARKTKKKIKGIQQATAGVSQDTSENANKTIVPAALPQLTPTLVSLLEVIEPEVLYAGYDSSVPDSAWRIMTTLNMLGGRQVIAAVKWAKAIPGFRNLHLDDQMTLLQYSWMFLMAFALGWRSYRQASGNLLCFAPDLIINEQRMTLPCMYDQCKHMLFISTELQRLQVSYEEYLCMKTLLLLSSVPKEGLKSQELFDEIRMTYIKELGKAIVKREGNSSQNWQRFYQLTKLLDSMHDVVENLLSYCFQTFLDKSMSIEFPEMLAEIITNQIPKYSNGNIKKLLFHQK
Experimental: Glucocorticoid receptor assay: A whole cell binding assay was used to determine GR number and affinity. 0.7×10^6 RAW264.7 cells in 2 ml medium were grown in 24-wells plates until 80% confluence was obtained. After the appropriate treatment, the medium was replaced with a saturating concentration of 50 nM [^3H]dexamethasone (85.0 Ci/mmol) (Amersham Biosciences, NJ, USA) in 5 μM unlabeled dexamethasone (Sigma, Israel). After incubation for 2 hours at 37° C., cells were washed 6 times with cold PBS and lysed in 1M NaOH. Lysates were harvested and counted in a beta-spectrometer.
Since HSP90 modulates GR activity by increasing its affinity to glucocorticoids (GCs) it was wondered whether such an effect could be obtained by activating TLR9. In order to challenge that hypothesis, RAW264.7 cells were incubated with varying concentrations of hEN101 for 24 hours and the medium was subsequently replaced with one containing different concentration of 50 nM [^3H]dexamethasone and 5 μM unlabeled dexamethasone. After a 2 hour incubation, radioactivity was measured in a beta-spectrometer.

RAW264.7 cells [3] = experiment: Nitric oxide (NO) production, Griess reaction; assay type: cell-based, mouse; details: for effect on 10 μM mEN101-driven increases in NO: added with 10 μM mEN101
Experimental: The mouse macrophage cell line RAW 264.7 (ATCC, Bethesda, Md.) was cultured in Dulbecco's modified Eagle's medium (DMEM) (Biological Industries) supplemented with 10% heat-inactivated fetal bovine serum (Biological Industries, Israel), 100 μg/ml streptomycin, 100 U/ml penicillin (Sigma) and 2 mM 1-glutamine (Biological Industries) at 37° C. in a humidified atmosphere with 5% CO2.
(§1) Determination of nitric oxide (NO) production: Nitrite concentration in the medium of cultured cells was measured as an indicator of NO production according to the Griess reaction. 1×10^5 mouse RAW264.7 cells were grown in 0.5 ml medium in 48-wells plate until 80% confluence was obtained. […] (1% sulfanilamide, 0.1% naphthylethylenediamine dihydrochloride, 5% H3PO4). Absorbance was read at 540 nm after 10 min using SPECTRAFluor Plus spectrophotometer (TECAN, UK).
To further characterize the TLR9 activating features of mEN101, mEN101 was applied to RAW264.7 cells (n=4 repeats) for 24 hours and the subsequent production of inflammatory markers was quantified. […] Addition of chloroquine (CQ), a weak base that perturbs endosomal pH and thus disturbs endosomal maturation, as well as the specific TLR9 inhibiting oligonucleotides ODN2088 and ODN TTAGGG (17), all blocked the 10 μM mEN101-driven increases in NO (p<0.015) (FIG. 2A). Thus, both gain and loss of function tests validated the nature of mEN101 as an endosomally active TLR9 activator, albeit a weak one.

RAW264.7 cells [4] = experiment: Nitric oxide (NO) production, Griess reaction; assay type: cell-based, mouse; details: with 1 μM mEN101
splenocytes = experiment: IFN-γ induction in splenocytes (ELISA); assay type: cell-based, mouse; details: mEN101 even at 10 μM doses
Experimental: Cell cultures: Spleens were removed from 5-6 week old FVB/N mice (Harlan Laboratories, Israel) and mashed until a homogeneous cell suspension was obtained. The suspension was centrifuged in a LSM Lymphocyte Separation Medium (MP Biomedicals, Solon, Ohio) and the mononuclear cell layer was separated. Cells were adjusted to a 5×10^6 cells/ml and cultured in RPMI 1640 (Biological Industries, Israel) supplemented with 5% FCS, […] L-glut, 100 μg/ml streptomycin, 100 U/ml penicillin and 5×10^−5 2-mercaptoethanol (Sigma, Israel).
ELISA: Serum was extracted by centrifuging blood in heparin-containing Microtainer LH vials (BD, Franklin Lakes, N.J.) for 10 minutes at 3000 g. Serum and cell-culture supernatants were analyzed for IL-1β, IL-6, TNF-α and IFN-γ using respective ELISA Ready-SET-Go (eBioscience, San Diego, Calif.) kits as instructed. Intensities were read using a Tecan SPECTRAFluor Plus spectrophotometer (Mannedorf, Switzerland).

RAW264.7 cells [5] = experiment: LPS-induced NO production with or without corticosterone after ODN1826 pre-incubation; assay type: cell-based, mouse; details: 10 or 50 mM corticosterone, LPS 1 μg/ml, 24 hours
Experimental: as §1, with “nitric oxygen” for “nitric oxide”, “production: The nitrite” for “production: Nitrite”, “medium” for “medium of cultured cells”, “1×10^5” for “1×10^5 mouse”, “10 minutes” for “10 min”
In order to study the functional effects of TLR9 activation on GR signaling, RAW264.7 cells were incubated with varying concentrations of ODN1826 (SEQ ID NO: 2) for 24 hours and the medium was replaced with one containing LPS (1 μg/ml) with or without […] corticosterone (CORT) for an additional 24 hours. As expected, CORT blocked lipopolysaccharide (LPS)-induced NO production.

RAW264.7 cells [6] = experiment: RT-PCR of inflammatory genes in RAW264.7 cells (Table 2); assay type: cell-based, mouse; details: 1 ug/ml
Experimental: Real-time PCR (RT-PCR): Brains were dissected and tissues stored frozen at −70° C. until use. Hippocampal RNA was extracted using the RNeasy Tissue Mini Kit (Qiagen, Germany). Total RNA was reverse-transcribed (200 ng) using Impromp-II reverse transcriptase (Promega, Madison, Wis.) as instructed. RT-PCR was performed using Power SYBR®Green PCR Master Mix (Applied Biosystems, UK) in a 7900 HT Sequence Detection System (Applied Biosystems, Foster City, Calif.). Quantification was assessed at the logarithmic phase of the PCR reaction. The PCR annealing temperature was 60° C. for all primer pairs. GAPDH was used as a house-keeping gene.
Shown are fold differences in RT-PCR products of RAW264.7 cells incubated with the noted doses of mEN101 or ODN1826. Note that ODN1826 affects IL1α, -1β, -6, -10, -12 and ICAM-1 gene expression at concentrations as low as 10 nM, whereas considerably higher doses of mEN101 are needed to attain similar effects. Nevertheless, mEN101 affects inflammatory gene expression even at 10 nM. 1 μg/ml LPS was used as positive control. (n=3, p<0.05 Mann-Whitney U-test compared to untreated controls, for all the data shown).

Compound: 5′-CTGCCACGTTCTCCTGCA*C*C*-3′ [hEN101]
- GR level (RAW264.7 cells [1]): not GR
- colocalization of HSP90 and GR signals (RAW264.7 cells [1]): increased colocalization of HSP90 and GR signals
- HSP90 level (RAW264.7 cells [1]; dose dependent): upregulated HSP90
- DEX (GR) Bmax, Scatchard plot analysis ([2]; 10 μM per FIG. 10D legend): increased
- concentration from which effects on [3H]dexamethasone incorporation are detectable ([2]; 24 hours pre-incubation): ≥ 1 µM
- whole cell [3H]dexamethasone incorporation / binding ([2]; 24 hours pre-incubation, dose-dependent): increased [^3H]dexamethasone incorporation

Compound: 5′-TTTAGGGTTAGGGTTAGGGTTAGGG-3′ (dT*dT*dT*dA*dG*dG*dG*dT*dT*dA*dG*dG*dG*dT*dT*dA*dG*dG*dG*dT*dT*dA*dG*dG*dG) [ODN TTAGGG]
- effect on 10 μM mEN101-driven increases in NO (RAW264.7 cells [3]): blocked
- effect on mEN101 effects on NO production (FIG. 2A legend) (RAW264.7 cells [4]): abolished

Compound: 5′-ggGGTCAACGTTGAgggggg (GGGGTCAACGTTGAGGGGGG; listed as DNA, chemistry not given here) [ODN1585, type-A CpG ODN, Invivogen]
- NO production at doses parallel to ODN1826 (10-100 nM) (RAW264.7 cells [3]; 24 hours): totally ineffective
- dose needed to initiate detectable NO overproduction (RAW264.7 cells [3]; 24 hours): 10 µM
- induction of IFN-γ (splenocytes): stronger for ODN1585 than ODN1826

Compound: C[C@]12C[C@H](O)[C@H]3[C@@H](CCC4=CC(=O)CC[C@@]43C)[C@@H]1CC[C@@H]2C(=O)CO [CORT, corticosterone]
- LPS-induced NO production (RAW264.7 cells [5]): blocked

Compound: CCN(CC)CCCC(C)Nc1ccnc2cc(Cl)ccc12 (centres unmarked) [chloroquine]
- effect on 10 μM mEN101-driven increases in NO (RAW264.7 cells [3]): blocked
- effect on mEN101 effects on NO production (FIG. 2A legend) (RAW264.7 cells [4]): abolished

Compound: lipopolysaccharide [LPS, reference compound]
- ICAM-1 RT-PCR product (RAW264.7 cells [6]): −3.74 log2 from NT
- IL1a RT-PCR product (RAW264.7 cells [6]): 8.86 log2 from NT
- IL1b RT-PCR product (RAW264.7 cells [6]): 5.42 log2 from NT
- IL6 RT-PCR product (RAW264.7 cells [6]): 3.81 log2 from NT
- IL10 RT-PCR product (RAW264.7 cells [6]): 3.20 log2 from NT
- IL12 RT-PCR product (RAW264.7 cells [6]): 8.75 log2 from NT

From US20110136897A1, “TOLL-LIKE RECEPTOR 9 AGONISTS FOR THE TREATMENT OF ANXIETY-RELATED DISORDERS AND INFLAMMATORY DISORDERS” (YISSUM RESEARCH DEVELOPMENT COMPANY OF THE HEBREW …, priority 2008, published 2011)
